Legend:
Assay in all cases: NCI human tumor cell panel
[1] = system: HCC-2998; assay type: cell-based; conditions: HCC 2998, read-out: Log10 LC50 (converted)
From the text: (§1) Considering the diversity of tumors in terms of cell type, morphology, growth rate and other cellular characteristics, the U.S. National Cancer Institute (NCI) has developed a "disease-oriented" approach to antitumor activity screening (M.R. Boyd, in "Principle of Practice of Oncology" J.T. Devita, S. Hellman, S.A. Rosenberg (Eds.) Vol. 3, PPO Update, No. 10, 1989). This in vitro prescreening system is based on the measurement of antitumor cytotoxicity against human tumor cell line panels consisting of approximately 60 cell lines of major human tumors (including leukemia and slower growing tumor cells such as lung, colon, breast, skin, kidney, etc.). The most important advantage of the new in vitro screening panels is the opportunity to identify compounds that are selectively more cytotoxic to cells of slowly growing solid tumors than to rapidly growing leukemia cells.
(§2) The cytotoxic activity of the present selenophene compounds have been measured utilizing two different assays or screens. The first screen measures the cytotoxicity against a panel of sixty different human tumor cell lines. This assay provides data regarding the general cytotoxicity of an individual compound. In particular this type of assay is useful in identifying compounds which have enhanced cytotoxic activity against slow growing tumors as compared to faster growing tumor cells such as leukemia tumor cell lines. The identification of such compounds is critical since previously identified antitumor agents have low cytotoxic activity against slower growing tumors. […] The specificity of a cytotoxic compound for tumor cell lines relative to normal cells is an important characteristic of an effective antitumor agent.
(§3) Antitumor cytotoxicity data generated from the National Cancer Institute human tumor cell panels can also be expressed in a graphic pattern (mean graph) to display differential cell growth inhibition (K.D. Paull, R.H. Shoemaker, L. Hodes, A. Monks, D.A. Scudiero, L. Rubinstein, J. Plowman and M.R. Boyd, J. Nail. Cancer Inst., 81, 1088, 1989.) In the mean graph, the arithmetic mean of the logarithm of the GI50 (50% growth inhibition), TGI (total growth inhibition) or LC50 (50% lethal concentration) values is used as an anchor point. […] The length of a bar is indicative of differential cytotoxicity against a specific type of tumor cells or tumor panels.
(§4) The antitumor cytotoxicity of the selenophene compounds tested in those in vitro assays was measured by a microculture assay using either a 3-(4,5-dimethylthiazol-2-yl)-2,5-diphenyltetrazolium bromide (MTT) or sulforhodamine B (SRB) based assay. [M.R. Boyd in "Principles and Practices of Oncology," V.T. DeVita, Jr.]. The experiments were conducted at Purdue University in 96-well microtiter plates and the cytotoxic effects of the selenophene compounds on those cells were measured by cell count using a Coulter Z.F. counter (Hialeah, FL). The results are expressed as GI50, the concentration of drug at which cell numbers are reduced to 50% of control cell culture [T.C.K. Chan, C.J. Chang, N.M. Koonchanok and R.L. Geahlen, Biochem. Biophys. Res. Commun., 193, 1152, (1993); S. Hellman and S.A. Rosenberg (Eds.), Vol. 3, PPO Updates, Number 10, (1989).]
(§5) This in vitro microculture assay has an advantage over in vivo assays in that results are obtained within a week as opposed to several months. The MTT assay is based on the production of a dark blue formazan product by dehydrogenase in the mitochondria of live tumor cells after exposure to drug for 6 days [M.C. Alley, D.A. Scudiero, A. Monks, M.L. Hursey, M.J. Czerwinski, D.L. Fine, B.J. Abbott, J.G. Mayo, R.H. Shoemaker and M.R. Boyd, Cancer Res., 48, 589, 1988]. Thus, only live cells are stained and can be measured at 570 nm. […]

[2] = system: M14; assay type: cell-based; conditions: M14, read-out: Log10 LC50 (converted)
From the text: as §1, §2, §3, §4, §5

[3] = system: SK-MEL-2; assay type: cell-based; conditions: SK-MEL-2, read-out: Log10 LC50 (converted)
From the text: as §1, §2, §3, §4, §5

[4] = system: 786-0; assay type: cell-based; conditions: 786-0, read-out: Log10 LC50 (converted)
From the text: as §1, §2, §3, §4, §5

[5] = system: LOX IMVI; assay type: cell-based; conditions: read-out: Log10 LC50 (converted)
From the text: as §1, §2, §3, §4, §5

[6] = system: SR; assay type: cell-based; conditions: read-out: Log10 LC50 (converted)
From the text: as §1, §2, §3, §4, §5

[7] = system: IGROV1; assay type: cell-based; conditions: IGROV-1, read-out: Log10 LC50 (converted)
From the text: as §1, §2, §3, §4, §5

[8] = system: MCF7; assay type: cell-based; conditions: MCF7, read-out: Log10 LC50 (converted)
From the text: as §1, §2, §3, §4, §5

[9] = system: MCF7/ADR-RES; assay type: cell-based; conditions: MCF7, read-out: Log10 LC50 (converted)
From the text: as §1, §2, §3, §4, §5

[10] = system: RPMI-8226; assay type: cell-based; conditions: RPMI-8226, read-out: Log10 LC50 (converted)
From the text: as §1, §2, §3, §4, §5

[11] = system: SW-620; assay type: cell-based; conditions: SW-620, read-out: Log10 LC50 (converted)
From the text: as §1, §2, §3, §4, §5

[12] = system: OVCAR-5; assay type: cell-based; conditions: OVCAR-5, read-out: Log10 LC50 (converted)
From the text: as §1, §2, §3, §4, §5

[13] = system: K-562; assay type: cell-based; conditions: K562, read-out: Log10 LC50 (converted)
From the text: as §1, §2, §3, §4, §5

[14] = system: MOLT-4; assay type: cell-based; conditions: MOLT-4, read-out: Log10 LC50 (converted)
From the text: as §1, §2, §3, §4, §5

[15] = system: SF-539; assay type: cell-based; conditions: SF-539, read-out: Log10 LC50 (converted)
From the text: as §1, §2, §3, §4, §5

[16] = system: HCT-15; assay type: cell-based; conditions: HCT-15, read-out: Log10 LC50 (converted)
From the text: as §1, §2, §3, §4, §5

[17] = system: OVCAR-4; assay type: cell-based; conditions: OVCAR-4, read-out: Log10 LC50 (converted)
From the text: as §1, §2, §3, §4, §5

[18] = system: A549/ATCC; assay type: cell-based; conditions: A549, read-out: Log10 LC50 (converted)
From the text: as §1, §2, §3, §4, §5

[19] = system: SK-MEL-5; conditions: SK-MEL-5, read-out: Log10 LC50 (converted)
[20] = system: MDA-MB-435; conditions: MDA-MB-435, read-out: Log10 LC50 (converted)
[21] = system: OVCAR-8; conditions: OVCAR-8, read-out: Log10 LC50 (converted)

| SMILES | CC50 [1] | CC50 [2] | CC50 [3] | CC50 [4] | CC50 [5] | CC50 [6] | CC50 [7] | CC50 [8] | CC50 [9] | CC50 [10] | CC50 [11] | CC50 [12] | LC50 [13] | CC50 [14] | CC50 [15] | CC50 [16] | CC50 [17] | CC50 [18] | CC50 [19] | CC50 [21] | further results |
| --- | --- | --- | --- | --- | --- | --- | --- | --- | --- | --- | --- | --- | --- | --- | --- | --- | --- | --- | --- | --- | --- |
| O=Cc1ccc(-c2ccc(-c3ccc(C=O)[se]3)s2)s1 | > 100 µM | > 100 µM | > 100 µM | 64.6 µM | > 100 µM | > 100 µM | 91.2 µM | > 100 µM | > 100 µM | > 100 µM | > 100 µM | > 100 µM | > 100 µM | > 100 µM | > 100 µM | > 100 µM | > 100 µM | > 100 µM | > 100 µM | > 100 µM | CC50 [20]: > 100 µM |
| OCc1ccc(-c2ccc(-c3ccc(CO)[se]3)s2)s1 | 44.7 µM | > 100 µM | > 100 µM | 57.5 µM | 56.2 µM | > 100 µM | 28.2 µM | > 100 µM | > 100 µM | > 100 µM | > 100 µM | > 100 µM | 97.7 µM | > 100 µM | 83.2 µM | > 100 µM | 81.3 µM | > 100 µM | > 100 µM | > 100 µM | CC50 [20]: > 100 µM |
| OCc1ccc(-c2ccc(-c3ccc[se]3)s2)[se]1 | > 100 µM | > 100 µM | > 100 µM | > 100 µM | 85.1 µM | > 100 µM | 51.3 µM | > 100 µM | 97.7 µM | > 100 µM | > 100 µM | – | > 100 µM | > 100 µM | > 100 µM | > 100 µM | > 100 µM | > 100 µM | > 100 µM | > 100 µM | CC50 [20]: > 100 µM |
| OCc1ccc(-c2ccc(-c3ccc[se]3)[se]2)[se]1 | 53.7 µM | 61.7 µM | 69.2 µM | 17.4 µM | 37.2 µM | > 100 µM | 12.3 µM | 29.5 µM | > 100 µM | > 100 µM | 35.5 µM | > 100 µM | > 100 µM | > 100 µM | 51.3 µM | > 100 µM | 47.9 µM | 46.8 µM | 29.5 µM | > 100 µM | – |
| OCc1ccc(-c2ccc(-c3ccc(CO)[se]3)[se]2)[se]1 | 12.6 µM | 49 µM | 69.2 µM | 70.8 µM | > 100 µM | > 100 µM | 30.2 µM | 47.9 µM | > 100 µM | > 100 µM | 9.55 µM | > 100 µM | 70.8 µM | > 100 µM | 95.5 µM | 55 µM | 49 µM | 53.7 µM | 6.31 µM | 72.4 µM | CC50 [20]: 49 µM |
| OCc1ccc(-c2ccc(-c3ccc(CO)s3)[se]2)s1 | > 100 µM | > 100 µM | > 100 µM | > 100 µM | > 100 µM | > 100 µM | – | > 100 µM | > 100 µM | > 100 µM | > 100 µM | > 100 µM | > 100 µM | > 100 µM | > 100 µM | > 100 µM | > 100 µM | > 100 µM | > 100 µM | > 100 µM | CC50 [20]: > 100 µM |
| O=Cc1ccc(-c2ccc(-c3ccc[se]3)[se]2)[se]1 | 38.9 µM | 72.4 µM | > 100 µM | 43.7 µM | 77.6 µM | – | 39.8 µM | 43.7 µM | – | > 100 µM | – | 75.9 µM | > 100 µM | > 100 µM | 63.1 µM | 79.4 µM | 60.3 µM | 51.3 µM | 37.2 µM | 95.5 µM | CC50 [20]: > 100 µM |
